Assay results taken from US9101569B2, “Methods for the treatment of insulin resistance” (UNIVERSITE DE GENEVE, priority 2010, dated 2015).

Columns and labels:
[1] = Plasma measurements after i.c.v. OT infusion in HFD-induced obese rats; format: in vivo, rat; details: rat, plasma, 1.6 nmol/day/rat; i.c.v. OT 1.6 nmol/d, 14 days; mean ± SEM; read-out: plasma Oxytocin
Description: (§1) After three weeks of HFD feeding, rats were submitted to surgical procedures. They were anesthetized with intramuscular injection of ketamine-xylasine (Ketalar®-Rompun®, Parke-Davis and Bayer, Leverkusen, Switzerland) at 40 and 9 mg/kg, respectively, and implanted with a cannula in the right lateral cerebral ventricle fixed on the skull with dental cement, as previously described (Rohner-Jeanrenaud et al., 1989, Endocrinology 124, 733-9). After one week of recovery, the drinking response to i.c.v. injection of Angiotensin II (5 ng/μl) (Novabiochem, Laüfelfingen, Switzerland) was measured to confirm the correct placement of the cannula. At the end of the fifth week of high fat diet feeding, osmotic minipumps (Alzet®, model 2001, Alza Corporation, Cupertino, Calif.) delivering oxytocin (NeoMPS®, Strasbourg, France) or its vehicle (NaCl 0.9%) were subcutaneously implanted and connected to the i.c.v. cannula via a polyethylene catheter, as previously described (Rohner-Jeanrenaud et al., 1989, above). OT was delivered at a dose of 1.6 nmol/day/rat or 16 nmol/day/rat during 14 days. A group of vehicle-infused rats was pair-fed to the amount of food consumed by OT-infused animals in order to assess the effects of OT independently from changes in food intake. The pair-feeding regimen consisted in giving one-third of the daily food amount in the morning and the remaining two-thirds just before onset of darkness. Rats were sacrificed using isoflurane anesthesia (Halocarbon Laboratories, River Edge, N.J.) and rapid decapitation between 09:00 and 13:00 h. Blood samples were collected into EDTA-coated tubes, centrifuged and plasma stored at −20° C. Tissues were rapidly removed, freeze-clamped, and stored at −80° C.
(§2) To determine the effect of OT on peripheral metabolism, levels of plasma glucose, insulin, leptin, FFA, glycerol and TG were determined. Plasma glucose was measured by the glucose oxidase method (Glu, Roche Diagnostics GmbH, Rotkreuz, Switzerland). Plasma non-esterified fatty acid (NEFA) and triglyceride (TG) levels were determined using NEFA C and TG enzymatic PAP150 commercial kits from Wako Chemicals GmbH (Neuss, Germany) and Biomérieux (Marcy l'Etoile, France), respectively. Plasma OT levels were determined using an ELISA, as previously described (Pequeux et al., 2001, Scand. J. Clin. Lab. Invest., 61, 407-415). Plasma glycerol levels were measured using the free Glycerol Reagent (Sigma).

[2] = test system: HFD-induced obese rats; assay: as above; format: in vivo, rat
Description: as §1, §2

[3] = test system: epididymal white adipose tissue (eWAT); assay: eWAT endocannabinoid content after i.c.v. OT infusion; format: in vivo, rat
[4] = test system: HFD-induced obese rats; assay: Glucose tolerance tests after i.c.v. OT infusion; format: in vivo, rat; details: after 7 weeks of HFD, i.c.v. 1.6 nmol/d
Description: The impact of OT-induced changes in peripheral lipid metabolism on glucose tolerance and insulin sensitivity was determined by glucose tolerance tests (GTT). Glucose (75 mg/kg body weight) was intraperitoneally administered 4 h after food removal. Blood glucose levels were measured using a glucose meter (One Touch II; LifeScan) from tail blood samples at 0, 15, 30, 60, 90, and 120 min after glucose injection.
Two glucose tolerance tests (GTT) were performed, a first one after […] of HFD (i.e. before the respective saline and OT treatments) and a second one at the end of the 2 week saline or OT infusion (i.e. after 7 weeks of HFD).

[5] = test system: HFD-induced obese rats; assay: High-fat diet-induced obesity rat model, subcutaneous infusion: body weight gain, food intake, body composition; format: in vivo
Description: (§3) Another group of the above male Wistar rats were rendered obese as described above and were subcutaneously infused with saline or OT (NeoMPS®, Strasbourg, France) (50 nmol/day/rat) during 14 days.
(§4) The beneficial metabolic effects of OT administration were assayed in the same high-fat diet induced obesity model in rats as in Example 1 and in PPAR-alpha knockout mice (Lee et al., 1995, Mol. Cell. Biol., 15(6):3012-22). HFD-induced obese animals, saline or OT groups (see conditions under Example 1) were subcutaneously infused via minipumps (Alzet®, as above). OT was delivered at a dose of 50 nmol/day/rat during 14 days.
An EchoMRI-700 quantitative nuclear magnetic resonance (QMR) analyzer (Echo Medical Systems, Houston, Tex.) was used to measure total fat mass and lean body mass in rats at the beginning and the end of the treatment.
The beneficial metabolic effects of administration of an oxytocin derivative according to the invention (Carbetocin) were assessed in the same rat model of high-fat diet induced obesity as in Example 1. HFD-induced obese animals were subcutaneously infused via minipumps (Alzet®, as above) with saline or carbetocin (Bachem) (5 nmol/day/rat or 50 nmol/day/rat) during 14 days.
Body composition parameters were measured by quantitative nuclear magnetic resonance as described in Example 3 at the beginning and 10 days of treatment.

[6] = test system: HFD-induced obese rats; assay: Plasma glycerol after subcutaneous OT infusion in HFD-induced obese rats; format: in vivo, rat; details: peripheral (s.c.) OT 50 nmol/day
Description: as §3, §2

[7] = test system: wild-type mice; assay: Peripheral OT infusion in wild-type littermate mice; format: in vivo; details: peripheral 50 nmol/day over 3 days
Description: as §4
(§5) OT was peripherally administered with 50 nmol/day over 3 days in PPAR-alpha knockout (KO) mice and their wild-type littermates. […] Consistently, OT peripheral infusion promoted an increase in the mRNA expression of PPAR-alpha target genes (Acadm, Acox1, Ehhadh, Ucp3) in wild-type mice, while it had no effect in PPAR-alpha knockouts.

[8] = test system: PPAR-alpha knockout (KO) mice; assay: Peripheral OT infusion in PPAR-alpha knockout mice; format: in vivo; details: peripheral 50 nmol/day over 3 days
Description: as §4, §5

[9] = test system: enzymes involved in lipid metabolism; assay: Tissue expression of lipid metabolism enzymes (real-time RT-PCR) after i.c.v. OT infusion; format: in vivo, rat; details: central OT infusion
[10] = i.c.v. OT 1.6 nmol/d, 14 days, mean ± SEM
[11] = i.c.v. OT 1.6 nmol/d, 14 days, mean ± SEM, listed as Oxytocin

CC[C@H](C)[C@@H]1NC(=O)[C@H](Cc2ccc(O)cc2)NC(=O)[C@@H](N)CSSC[C@@H](C(=O)N2CCC[C@H]2C(=O)N[C@@H](CC(C)C)C(=O)NCC(N)=O)NC(=O)[C@H](CC(N)=O)NC(=O)[C@H](CCC(N)=O)NC1=O [OT, Cys-Tyr-Ile-Gln-Asn-Cys-Pro-Leu-Gly (SEQ ID NO: 1)]
level at 336 h [1]: 0.0218 ± 0.0058 ng/mL
plasma glycerol levels ([2]; central (i.c.v.) OT 1.6 nmol/day): increased
plasma 2-AG [2, 10]: 53 ± 4.9 pmol/mL
plasma AEA [2, 10]: 19 ± 2.3 pmol/mL
plasma FFA [2, 10]: unchanged
plasma Glucose [2, 10]: unchanged
plasma Insulin [2, 10]: unchanged
plasma Leptin [2, 10]: unchanged
plasma OEA [2, 10]: 178 ± 15 pmol/mL
plasma Oxytocin [2, 10]: increased
plasma PEA [2, 10]: 1.63 ± 0.15 nmol/mL
plasma TG [2, 10]: decreased
plasma FFA [2, 11]: 0.70 ± 0.06 mmol/L
plasma Glucose [2, 11]: 159.5 ± 4.1 mg/dL
plasma Insulin [2, 11]: 1.7 ± 0.3 ng/mL
plasma Leptin [2, 11]: 11.3 ± 2.2 ng/mL
plasma TG [2, 11]: 0.80 ± 0.05 mmol/L
eWAT OEA content ([3]; chronic i.c.v. OT 1.6 nmol/d, compared with saline): increased
eWAT content of other endocannabinoids (PEA, AEA, 2-AG) ([3]; chronic i.c.v. OT infusion): not modifying
stimulatory effect on OEA content ([3]; i.c.v. 1.6 nmol/d (lower dose)): 1.3 folds
stimulatory effect on OEA content ([3]; i.c.v. 16 nmol/d): 2 folds
insulin oversecretion during GTT [4]: not observed
glucose tolerance (GTT) ([4]; compared to GTT after 3 weeks of HFD): impairment
food intake ([5]; s.c. 50 nmol/day, 14 days): decreased
body weight gain ([5]; s.c. 50 nmol/day, 14 days, not observed in pair-fed group): decreased
fat mass by weighing adipose tissue depots ([5]; s.c. OT 50 nmol/day): food intake-independent decrease
plasma glycerol levels [6]: increased
body weight gain [7]: significant decrease
mRNA expression of PPAR-alpha target genes (Acadm, Acox1, Ehhadh, Ucp3) [7]: increase
body weight gain [8]: did not modify
mRNA expression of PPAR-alpha target genes (Acadm, Acox1, Ehhadh, Ucp3) [8]: no effect
HSL at the protein level [9]: stimulatory effect
expression of genes involved in fatty acid β-oxidation ([9]; liver): did not modify
